What all share (assay type): cell-based, human
In assay [1] the test system is IL-8 production. Briefly: P. acnes-induced IL-8 production in HaCaT keratinocytes (ELISA). The note with it: for reduction of IL-8 production, 24 h pre-treatment / effect on IL-8 production (time course, FIG. 4A) / effect on IL-8 production at 12.5 μM, in words / reduction of IL-8 production, 1 and 6 h pre-treatment / decrease of IL-8 production, 48 h pre-treatment: HaCaT; for reduction of IL-8 production, 24 h pre-treatment: 6.25 μM; for reduction of IL-8 production, 24 h pre-treatment / reduction of IL-8 production, 1 and 6 h pre-treatment / decrease of IL-8 production, 48 h pre-treatment: P. acnes 18 h; for effect on IL-8 production (time course, FIG. 4A): 10 μM, P. acnes 15-180 min; for reduction of IL-8 production, 24 h pre-treatment / effect on IL-8 production (time course, FIG. 4A): 24 h pre-treatment; for effect on IL-8 production at 12.5 μM, in words: 24 h pre-treatment (FIG. 8B); for reduction of IL-8 production, 1 and 6 h pre-treatment: 0.39 to 12.5 μM; for IC50: Homo sapiens, HaCaT cells pre-treated 24 h, then stimulated with P. acnes, read-out: IC50 of inhibition of IL-8 production. Here is the method:
Bacterial strain and conditions of growth. P. acnes strain 6919 was obtained from the American Type Culture Collection (Manassas, Va.) and P. acnes strains RON and PIE were isolated from patient with joint infection. All strains were grown under anaerobic conditions in reinforced clostridial liquid and solid medium (RCM) (Difco Laboratories, Detroit, Mich.). P. acnes was transferred from the bacterial stock onto RCM agar plate and incubated for 5 days under anaerobic condition by using a GasPak™ EZ Anaerobic Container System (Becton Dickinson & Co, Sparks Md., USA). A single colony was transferred into 100 ml RCM and grown as described above. Bacterial suspension was then store frozen at −80° C. in presence of 10% glycerol final. This stock was called «start stock» and used for all the experiments. For routine culture, 100 ml of RCM was used and bacteria were harvested after 5 days at 37° C. by centrifugation at 7,000×g for 10 min at 4° C. Pellets were pooled and washed in about 30 ml of cold sterile PBS [1.5 mM KH2PO4, 2.7 mM Na2HPO4.7H2O, 0.15 M NaCl (pH 7.4)] and centrifuged again as described above. Finally, the bacterial pellet was suspended in sterile PBS (1:10 from volume culture).
Cell culture, pretreatment and stimulation. The immortalized human keratinocyte cell line HaCaT, fibroblast MRC5 were grown in Dulbecco's modified Eagle's medium-Glutamax-I (DMEM) with 1 mM sodium pyruvate. The immortalized human monocytic cell line ThP1 was grown in Roswell Park Memorial Institute 1640 Medium-Glutamax-I (RPMI). DMEM and RPMI were supplemented with 0.1% and 10% heat-inactivated fetal calf serum (Invitrogen), and an antibiotic/antimycotic solution (10 U/ml Pencillin, 10 μg/ml Streptomycin, 0.25 μg/ml Amphoterin) at 37° C. in humidified atmosphere containing 5% CO2 as described (Life Technologie). Primary human keratinocytes (NHDK) and fibroblast (HDF) were grown in the KGM-Gold and in FGM-2 Bullet Kit, respectively, as described by the manufacturer (Lonza). The immortalized cell lines were routinely tested to assess the absence of Mycoplasma infection. Cells, cultivated in 6- or 96-well polystyrene plates, were pretreated with appropriate molecule solution for 1 to 48 h at 37° C. in the dark at the appropriate concentration. Then, for stimulation, cells were incubated for 15 min to 24 h with the P. acnes suspension adjusted at the appropriate concentration at 37° C. in 5% CO2. For experiences using an in vitro model of psoriasis, the primary human keratinocytes (NHDK) were grown in culture medium for 24 hours. The medium was removed and replaced with culture medium containing meclozine, diclazuril and JAK inhibitor (used as positive control) at the concentrations of 0.39, 0.78, 1.56, 3.12, 6.25 and 12.5 μM and the pro-inflammatory mixture M5 (combination of IL-17A, OSM, TNF-α, IL-22, IL-1α at 10 ng/ml) was added to the cells followed by an incubation for 48 or 72 hours.
ELISA. Human IL-1β, IL-8, hBD-2 and TNF-α protein concentration were measured in the supernatants of stimulated cells using various ELISA Sets (all from Ready-Set-Go from eBioscience, except hBD-2 measurements: Human DEFB4A/BD-2 ELISA Kit from LSBio) according to the manufacturer's instructions. We used serial dilutions of recombinant human IL-1β, IL-8, hBD-2 and TNF-α for standard curve. The optical density was determined at 450 nm at a wavelength correction of 540 nm.
Both molecules, diclazuril and meclozine, were purchased separately from Sigma and tested independently on immortalized keratinocytes HaCaT cell for their capacity to inhibit the IL-8 production in a dose-dependent manner. HaCaT cells were pre-treated with diclazuril and meclozine, at the concentrations ranging from 0.39 to 50 μM, for 24 h and then stimulated with P. acnes suspension as described in Materials and Methods. The production of IL-8 was measured on culture supernatant by ELISA and the viability of cells was estimated by MTT assay (FIG. 1).

Assay [2] deals with Akt. Briefly: Western blot of p-Akt/Akt in P. acnes-stimulated HaCaT cells. The note with it: 25 μM, 24 h pre-treatment. The procedure: (§1) Western Blot analysis. Whole cell protein extracts (25 μg) were separated by electrophoresis (LDS-PAGE) under denaturing conditions with NuPAGE Novex 4-12% Bis-Tris gel (1 mm, 12 wells, Invitrogen, UK) and proteins were transferred onto nitrocellulose membranes and saturated in 20 ml of saturation buffer consisting of TBS 1× (Tris Buffered Saline) containing 200 mM Tris, 1.4 M NaCl (pH 7.6), 5% no fat milk, 0.1% Tween 20 for 1 h. […] After washing to remove unbound antibodies, bound primary antibodies were detected by incubation for 1 h using secondary antibody against rabbit- and mouse IgG (Santa Cruz Biotechnology, SC-2357, 1:5000 and SC-2005, 1:5000, respectively). Unbound material was removed by washing and peroxidase activity was detected in a chemiluminescence assay (WesternBright ECL, Advansta, Menlo Park, USA). […]
A general note: In western blotting, separated proteins are transferred to a membrane and probed.

In assay [3] the test system is PI3K. Briefly: Western blot of p-PI3K/PI3K in P. acnes-stimulated HaCaT cells. The settings on record: 25 μM, 24 h pre-treatment. Here is the method:
as §1

The text below walks through data of patent US11617748B2, “Meclozine derivatives and diclazuril derivatives for use in the prevention and/or the treatment of disorders associated to the inflammation induced by P. acnes” (priority 2016, dated 2023).

Structures are written as SMILES.

The term IC50 denotes the concentration that inhibits the measured activity by half.

`N#CC(c1ccc(Cl)cc1)c1c(Cl)cc(-n2ncc(=O)[nH]c2=O)cc1Cl` (stereo not shown) [diclazuril, Diclazuril]: in assay [1], the “reduction of IL-8 production, 24 h pre-treatment” value was 36%; the “effect on IL-8 production (time course, FIG. 4A)” value is reported as “inhibit”; the “effect on IL-8 production at 12.5 μM, in words” value is given as “strong effect”; the “reduction of IL-8 production, 1 and 6 h pre-treatment” value is reported as “did not reduce significantly”. In assay [1], the “decrease of IL-8 production, 48 h pre-treatment” value is given as 65% and the IC50 is around 6 µM. The “phosphorylation of Akt induced by P. acnes” value in assay [2] is recorded as “prevented the phosphorylation”. For the same molecule, the “phosphorylation of PI3K induced by P. acnes” value in assay [3] is reported as “prevented the phosphorylation”.
For `Cc1cccc(CN2CCN(C(c3ccccc3)c3ccc(Cl)cc3)CC2)c1` (stereo not shown) [meclozine, Meclozine], in assay [1], the “reduction of IL-8 production, 24 h pre-treatment” value was determined as 63%; the “effect on IL-8 production (time course, FIG. 4A)” value is given as “inhibit”; the “effect on IL-8 production at 12.5 μM, in words” value is “strong effect”; the “reduction of IL-8 production, 1 and 6 h pre-treatment” value is listed as “did not reduce significantly”. In addition, in assay [1], the “decrease of IL-8 production, 48 h pre-treatment” value is on record as 78% and the IC50 was around 3 µM. The “phosphorylation of Akt induced by P. acnes” value in assay [2] was “prevented the phosphorylation”. In addition, in assay [3], the “phosphorylation of PI3K induced by P. acnes” value is recorded as “prevented the phosphorylation”.
